Test results as given in ChEMBL document CHEMBL1143046, “Synthesis and bioassay evaluation of 1-(4-substitutedideneaminooxymethyl)-phenyl-3-(2,6-difluorobenzoyl)ureas” (2007).

Assays:
Format in all cases: functional
Mythimna separata [1] = assay: Insecticidal activity against Mythimna separata at 500 mg/kg
Mythimna separata [2] = assay: Insecticidal activity against Mythimna separata at 200 mg/kg
Mythimna separata [3] = assay: Insecticidal activity against Mythimna separata at 50 mg/kg
Mythimna separata [4] = assay: Insecticidal activity against Mythimna separata at 10 mg/kg
Mythimna separata [5] = assay: Insecticidal activity against Mythimna separata at 25 mg/kg
Nephotettix cincticeps = assay: Insecticidal activity against Nephotettix cincticeps at 500 mg/kg
Mythimna separata [6] = assay: Insecticidal activity against Mythimna separata at 100 mg/kg
Tetranychus urticae [7] = assay: Acarcidal activity against Tetranychus urticae eggs at 200 mg/kg
Tetranychus urticae [8] = assay: Acarcidal activity against Tetranychus urticae larvae at 200 mg/kg

Row | SMILES | Activity (Mythimna separata [1]) | Activity (Mythimna separata [2]) | Activity (Mythimna separata [3]) | Activity (Mythimna separata [4]) | Activity (Mythimna separata [5]) | Activity (Nephotettix cincticeps) | Activity (Mythimna separata [6]) | Activity (Tetranychus urticae [7]) | Activity (Tetranychus urticae [8])
1 | N#C/C(=N/OCc1ccc(NC(=O)NC(=O)c2c(F)cccc2F)cc1)c1ccccc1 | 25% | 0% | 0% | 0% | 0% | 50% | 0% | – | –
2 | Cc1nn(-c2ccccc2)c(Cl)c1/C=N\OCc1ccc(NC(=O)NC(=O)c2c(F)cccc2F)cc1 | 100% | 40% | 0% | 0% | 0% | 62.5% | 0% | – | –
3 | Cc1cc(C)cc(Oc2c(/C=N\OCc3ccc(NC(=O)NC(=O)c4c(F)cccc4F)cc3)c(C)nn2C)c1 | 100% | 100% | 0% | 0% | 0% | 69.7% | 50% | – | –
4 | CCCCS/C(=N/OCc1ccc(NC(=O)NC(=O)c2c(F)cccc2F)cc1)c1ccc(C(C)(C)C)cc1 | 80% | 65% | 25% | 0% | 0% | 56.3% | 40% | – | –
5 | CCCS/C(C)=N\OCc1ccc(NC(=O)NC(=O)c2c(F)cccc2F)cc1 | 75% | 15% | – | 0% | 10% | – | 10% | – | –
6 | CC(C)(C)c1ccc(/C=N\OCc2ccc(NC(=O)NC(=O)c3c(F)cccc3F)cc2)cc1 | 30% | 0% | – | – | – | 18.2% | – | – | –
7 | Cc1ccc(Oc2c(/C=N\OCc3ccc(NC(=O)NC(=O)c4c(F)cccc4F)cc3)c(C)nn2C)cc1 | 30% | 0% | 0% | 0% | 0% | 50% | 0% | – | –
8 | O=C(NC(=O)c1c(F)cccc1F)Nc1ccc(CO/N=C\c2ccc3c(c2)OCO3)cc1 | 100% | 100% | 100% | 50% | 100% | 33.3% | 100% | 11% | 10%
9 | C/C(=N/OCc1ccc(NC(=O)NC(=O)c2c(F)cccc2F)cc1)c1ccc2c(c1)OCO2 | 100% | 100% | 90% | 15% | 70% | – | 100% | 10% | 7%
10 | CC(C)Oc1ccc(/C=N\OCc2ccc(NC(=O)NC(=O)c3c(F)cccc3F)cc2)cc1 | 0% | – | – | – | – | – | – | – | –
11 | Cc1ccc(Oc2c(/C=N\OCc3ccc(NC(=O)NC(=O)c4c(F)cccc4F)cc3)c(C)nn2C)cc1C | 60% | 0% | 0% | 0% | 0% | 24.3% | 0% | – | –
12 | CCS/C(=N/OCc1ccc(NC(=O)NC(=O)c2c(F)cccc2F)cc1)C(C)C | 100% | 100% | – | 0% | 0% | 41% | 50% | 76% | 43%
13 | C/C(=N/OCc1ccc(NC(=O)NC(=O)c2c(F)cccc2F)cc1)n1cncn1 | 100% | 100% | 50% | 0% | 0% | 19.2% | 100% | 12% | 10%
14 | O=C(NC(=O)c1c(F)cccc1F)Nc1ccc(CO/N=C\OCc2ccccc2)cc1 | 30% | 0% | – | – | – | 45.7% | – | – | –
15 | O=C(NC(=O)c1c(F)cccc1F)Nc1ccc(CO/N=C(/c2ccc(Cl)cc2)C2CC2)cc1 [FLUCYCLOXURON] | – | – | – | 100% | 100% | 42.8% | – | 100% | 100%
